Assays:
[1] = target: T1, Serine/threonine-protein kinase 17A (Homo sapiens, UniProt Q9UEE5)
T1 sequence (Q9UEE5 whole entry): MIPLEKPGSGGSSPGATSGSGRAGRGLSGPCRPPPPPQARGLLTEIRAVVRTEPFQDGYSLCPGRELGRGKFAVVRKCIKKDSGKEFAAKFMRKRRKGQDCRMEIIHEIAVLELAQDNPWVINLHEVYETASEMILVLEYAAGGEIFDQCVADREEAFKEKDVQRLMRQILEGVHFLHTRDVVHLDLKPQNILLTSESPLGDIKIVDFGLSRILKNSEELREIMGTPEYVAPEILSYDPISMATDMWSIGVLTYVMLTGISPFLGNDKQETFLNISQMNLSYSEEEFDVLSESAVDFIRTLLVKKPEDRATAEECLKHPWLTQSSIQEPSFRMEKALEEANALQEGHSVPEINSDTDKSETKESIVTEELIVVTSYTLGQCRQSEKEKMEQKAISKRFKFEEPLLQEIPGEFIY

[2] = target: 5'-AMP-activated protein kinase catalytic subunit alpha-1 (Homo sapiens, UniProt Q13131)
Chain of 5'-AMP-activated protein kinase catalytic subunit alpha-1 (Q13131 whole entry): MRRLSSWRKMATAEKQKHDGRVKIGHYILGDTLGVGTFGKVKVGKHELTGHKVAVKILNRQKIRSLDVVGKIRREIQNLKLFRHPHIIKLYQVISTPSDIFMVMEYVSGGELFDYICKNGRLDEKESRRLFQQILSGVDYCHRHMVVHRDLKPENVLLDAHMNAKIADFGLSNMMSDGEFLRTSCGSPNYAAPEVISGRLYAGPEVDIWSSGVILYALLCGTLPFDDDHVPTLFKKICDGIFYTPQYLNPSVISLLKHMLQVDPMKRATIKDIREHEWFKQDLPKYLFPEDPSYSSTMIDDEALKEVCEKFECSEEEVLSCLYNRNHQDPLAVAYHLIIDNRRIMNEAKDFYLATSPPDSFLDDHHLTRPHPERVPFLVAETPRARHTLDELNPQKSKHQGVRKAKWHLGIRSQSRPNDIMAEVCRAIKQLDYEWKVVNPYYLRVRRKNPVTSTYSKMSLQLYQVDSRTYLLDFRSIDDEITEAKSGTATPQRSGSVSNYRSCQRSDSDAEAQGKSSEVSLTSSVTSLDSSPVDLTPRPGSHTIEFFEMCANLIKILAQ

[3] = target: Mitogen-activated protein kinase 8 (Homo sapiens, UniProt P45983)
Chain of Mitogen-activated protein kinase 8 (P45983 whole entry): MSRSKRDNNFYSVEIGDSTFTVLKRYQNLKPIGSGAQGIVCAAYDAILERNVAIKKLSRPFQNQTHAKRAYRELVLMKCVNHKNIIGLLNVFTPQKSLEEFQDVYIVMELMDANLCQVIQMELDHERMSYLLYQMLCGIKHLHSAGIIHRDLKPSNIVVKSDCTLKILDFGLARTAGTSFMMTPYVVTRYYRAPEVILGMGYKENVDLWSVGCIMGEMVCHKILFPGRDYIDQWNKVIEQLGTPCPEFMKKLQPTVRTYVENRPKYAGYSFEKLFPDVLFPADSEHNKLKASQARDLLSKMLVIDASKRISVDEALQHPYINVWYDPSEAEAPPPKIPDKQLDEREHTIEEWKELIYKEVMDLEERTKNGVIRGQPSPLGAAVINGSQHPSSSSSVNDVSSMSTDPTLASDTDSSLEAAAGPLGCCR

[4] = target: T2, Serine/threonine-protein kinase RIO3 (Homo sapiens, UniProt O14730)
T2 sequence (O14730 whole entry): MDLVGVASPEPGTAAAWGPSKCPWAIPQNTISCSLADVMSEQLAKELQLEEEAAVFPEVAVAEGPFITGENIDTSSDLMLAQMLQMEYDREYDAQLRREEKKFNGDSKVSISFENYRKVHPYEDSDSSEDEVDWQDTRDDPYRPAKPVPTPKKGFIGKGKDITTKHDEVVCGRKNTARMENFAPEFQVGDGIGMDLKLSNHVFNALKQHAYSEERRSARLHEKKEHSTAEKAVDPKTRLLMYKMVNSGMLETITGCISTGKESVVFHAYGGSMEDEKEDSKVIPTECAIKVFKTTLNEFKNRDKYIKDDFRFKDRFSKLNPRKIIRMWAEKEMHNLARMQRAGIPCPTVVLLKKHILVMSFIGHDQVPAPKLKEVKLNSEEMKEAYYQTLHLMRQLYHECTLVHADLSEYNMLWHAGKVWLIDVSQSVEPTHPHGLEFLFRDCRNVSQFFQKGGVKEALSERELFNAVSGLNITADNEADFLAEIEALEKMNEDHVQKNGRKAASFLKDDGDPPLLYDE

[5] = target: T3, Mitogen-activated protein kinase 12 (Homo sapiens, UniProt P53778)
T3 sequence (P53778 whole entry): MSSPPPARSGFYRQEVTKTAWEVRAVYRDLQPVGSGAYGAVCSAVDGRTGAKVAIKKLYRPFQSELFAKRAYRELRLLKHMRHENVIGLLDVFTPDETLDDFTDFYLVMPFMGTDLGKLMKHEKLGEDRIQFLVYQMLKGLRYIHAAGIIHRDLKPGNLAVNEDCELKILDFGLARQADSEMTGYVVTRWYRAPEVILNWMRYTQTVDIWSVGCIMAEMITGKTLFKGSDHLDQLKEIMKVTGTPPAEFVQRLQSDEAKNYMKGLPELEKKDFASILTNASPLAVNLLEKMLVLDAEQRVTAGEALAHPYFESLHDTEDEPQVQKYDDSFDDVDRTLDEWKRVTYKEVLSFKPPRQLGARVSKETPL

[6] = target: Serine/threonine-protein kinase tousled-like 2 (Homo sapiens, UniProt Q86UE8)
Chain of Serine/threonine-protein kinase tousled-like 2 (Q86UE8 whole entry): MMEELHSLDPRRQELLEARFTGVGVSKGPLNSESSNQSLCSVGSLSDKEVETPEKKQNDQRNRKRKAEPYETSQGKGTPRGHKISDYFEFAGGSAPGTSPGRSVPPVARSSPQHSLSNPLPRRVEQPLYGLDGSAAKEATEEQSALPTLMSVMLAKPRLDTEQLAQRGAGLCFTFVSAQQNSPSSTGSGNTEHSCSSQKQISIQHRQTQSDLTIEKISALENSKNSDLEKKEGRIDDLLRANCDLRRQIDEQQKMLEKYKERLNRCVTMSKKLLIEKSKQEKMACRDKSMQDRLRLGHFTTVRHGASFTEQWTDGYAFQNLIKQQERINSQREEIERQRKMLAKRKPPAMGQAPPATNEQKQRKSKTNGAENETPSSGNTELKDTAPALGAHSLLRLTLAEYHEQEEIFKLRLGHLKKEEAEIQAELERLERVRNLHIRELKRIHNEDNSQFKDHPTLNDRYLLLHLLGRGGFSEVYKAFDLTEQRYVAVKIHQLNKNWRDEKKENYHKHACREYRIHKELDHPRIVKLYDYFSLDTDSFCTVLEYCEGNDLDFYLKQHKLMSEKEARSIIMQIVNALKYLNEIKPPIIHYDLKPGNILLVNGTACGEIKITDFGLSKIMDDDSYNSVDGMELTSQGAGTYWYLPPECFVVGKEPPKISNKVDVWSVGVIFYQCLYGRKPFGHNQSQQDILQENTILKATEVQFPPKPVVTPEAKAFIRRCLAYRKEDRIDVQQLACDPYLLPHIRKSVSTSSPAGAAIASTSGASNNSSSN

[7] = target: T4, Dual specificity mitogen-activated protein kinase kinase 6 (Homo sapiens, UniProt P52564)
T4 sequence (P52564 whole entry): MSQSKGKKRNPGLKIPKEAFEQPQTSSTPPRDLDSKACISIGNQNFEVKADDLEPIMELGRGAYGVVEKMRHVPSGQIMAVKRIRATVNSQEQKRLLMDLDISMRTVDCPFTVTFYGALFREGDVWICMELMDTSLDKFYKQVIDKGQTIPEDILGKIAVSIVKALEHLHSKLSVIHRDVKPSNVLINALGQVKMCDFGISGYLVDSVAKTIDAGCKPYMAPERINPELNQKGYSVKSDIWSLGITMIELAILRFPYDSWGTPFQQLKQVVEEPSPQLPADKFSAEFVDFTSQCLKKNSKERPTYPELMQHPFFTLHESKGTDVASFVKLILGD

[8] = target: T5, NUAK family SNF1-like kinase 1 (Homo sapiens, UniProt O60285)
T5 sequence (O60285 whole entry): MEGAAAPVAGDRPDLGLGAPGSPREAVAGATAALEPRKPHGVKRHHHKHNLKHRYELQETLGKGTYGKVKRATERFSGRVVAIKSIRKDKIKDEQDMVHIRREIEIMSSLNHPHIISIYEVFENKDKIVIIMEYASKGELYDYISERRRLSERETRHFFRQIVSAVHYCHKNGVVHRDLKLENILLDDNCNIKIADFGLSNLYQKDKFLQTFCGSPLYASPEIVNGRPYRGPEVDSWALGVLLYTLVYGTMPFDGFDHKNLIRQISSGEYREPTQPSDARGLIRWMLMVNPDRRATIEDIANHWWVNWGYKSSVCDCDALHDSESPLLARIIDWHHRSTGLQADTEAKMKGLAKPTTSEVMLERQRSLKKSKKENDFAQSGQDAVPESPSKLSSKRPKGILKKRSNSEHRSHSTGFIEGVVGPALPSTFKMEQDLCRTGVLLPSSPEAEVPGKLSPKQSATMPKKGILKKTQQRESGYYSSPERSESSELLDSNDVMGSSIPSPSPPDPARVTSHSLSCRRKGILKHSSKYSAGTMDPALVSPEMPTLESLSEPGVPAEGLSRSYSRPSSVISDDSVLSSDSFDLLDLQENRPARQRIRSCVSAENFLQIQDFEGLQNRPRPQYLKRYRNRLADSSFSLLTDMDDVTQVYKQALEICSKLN

Row | Compound | Kd [1] [µM] | Kd [2] [µM] | Kd [3] [µM] | Kd [4] [µM] | Kd [5] [µM] | Kd [6] [µM] | Kd [7] [µM] | Kd [8] [µM]
1 | COCC(=O)NC/C=C/c1ccc2ncnc(Nc3ccc(Oc4ccc(C)nc4)c(C)c3)c2c1 [CP-724714] | > 10 | > 10 | > 10 | > 10 | > 10 | > 10 | > 10 | > 10
2 | Nc1nc(Nc2ccc(S(N)(=O)=O)cc2)nn1C(=O)c1c(F)cccc1F [JNJ-7706621] |  |  |  | 1.2 | > 10 |  |  | 
3 | CCOc1cc2ncc(C#N)c(Nc3ccc(F)c(Cl)c3)c2cc1NC(=O)/C=C/CN(C)C [PELITINIB] |  | > 10 | > 10 | > 10 | > 10 | > 10 | > 10 | > 10
4 | Oc1ccc(-c2nc(-c3ccncc3)c(-c3ccc(F)cc3)[nH]2)cc1 [SB-202190] | > 10 | > 10 | 2.4 | > 10 |  | > 10 | > 10 | > 10
5 | NC(=O)c1ccc(-c2nc(-c3ccc4c(c3)OCO4)c(-c3ccccn3)[nH]2)cc1 [SB-431542] | > 10 | > 10 | > 10 | > 10 | > 10 | > 10 | > 10 | > 10
